{"source": "patent US20170232031A1", "about": "“Inhibitors of Zika Virus” (Riboscience LLC, priority 2016, published 2017)", "key": {"[1]": {"experiment": "Cytotoxicity (CC50) alongside HCV GT1a replicon assay", "assay_type": "cell-based", "conditions": "HCV GT1a (H77) replicon cells; replicon genotype 1a (H77)"}, "[2]": {"system": "HCV replicon of genotype 1a (H77)", "experiment": "HCV replicon genotype 1a antiviral activity", "assay_type": "cell-based", "conditions": "Hepatitis C virus; replicon genotype 1a (H77); read-out: HCV GT1a EC50"}, "human RNA polymerase I [3]": {"target": "T1, human RNA polymerase I (Homo sapiens, UniProt O95602+Q9H9Y6)", "T1 construct": "endogenous in cells; host or cells: HeLa", "experiment": "RNA polymerase I specific reporter gene assay in HeLa cells", "assay_type": "cell-based", "conditions": "10 or 100 μM (highest soluble concentrations)"}, "human RNA polymerase II [4]": {"target": "T2, human RNA polymerase II (Homo sapiens, UniProt P24928+P30876)", "T2 construct": "endogenous in cells; host or cells: HeLa", "experiment": "RNA polymerase II specific reporter gene assay in HeLa cells", "assay_type": "cell-based", "conditions": "10 or 100 μM (highest soluble concentrations)"}, "[5]": {"system": "HCV replicon of genotype 1b (Con1)", "experiment": "HCV replicon genotype 1b antiviral activity", "assay_type": "cell-based", "conditions": "Hepatitis C virus; replicon genotype 1b (Con1); read-out: HCV GT1b EC50"}, "[6]": {"experiment": "Cell viability (CC50) alongside ZIKV antiviral assay, Cell-titer Glo", "assay_type": "cell-based", "conditions": "human, Huh-7 cells", "experimental": "(§1) The human hepatoma cell line Huh-7, are cultured in DMEM without phenol-red (Cellgro Mediatech, Cat #10-013-CV containing 4.5 g/l glucose, L-glutamine & sodium pyruvate). The medium is further supplemented with 10% (v/v) FBS (ATLAS Cat # F-0500-A, lot#850114A) and 1% (vlv) penicillin/streptomycin (Cellgro Mediatech #30-022-CI). Cells are maintained at 37° C. in a humidified 5% CO2 atmosphere. Zika virus representative strain titers are measured on BHK-21 cells, using a standard plaque assay procedure. For the determination of EC50 of nucleoside in the antiviral assay, Huh-7 cells are plated in white 96-well plates in MEM media supplemented with 10% FBS and 1% penicillin/streptomycin. After incubation for 24 h, the cells are infected at a multiplicity of infection (MOI) of 0.5 for 2 h at 37° C. Ten three-fold dilutions of compounds are prepared in the same media supplemented with 1% DMSO. After the 2 h adsorption phase, the virus is aspirated off and diluted compound is added to four wells each. Huh-7 cells are plated as described above and exposed to the same concentration range of compounds. Untreated cells are carried along as a control. After a 3-day incubation at 37° C., the cell viability is determined using Cell-titer Glo™ reagent (Promega, Madison, Wis.) that is added to each well and incubated for 5 min. Plates are analyzed using a Thermo Luminoskan plate reader (Waltham, Mass.)."}, "human RNA polymerase III [7]": {"target": "T3, human RNA polymerase III (Homo sapiens, UniProt O14802+Q9NW08)", "T3 construct": "endogenous in cells; host or cells: HeLa", "experiment": "RNA polymerase III specific reporter gene assay in HeLa cells", "assay_type": "cell-based", "conditions": "10 or 100 μM (highest soluble concentrations)"}, "[8]": {"system": "ZIKV strain MR766 (Genbank LC002520)", "experiment": "Antiviral activity against ZIKV replication in cells", "assay_type": "cell-based, Zika virus", "experimental": "as §1"}, "[9]": {"experiment": "Solubility in cell culture medium / aqueous media", "conditions": "plasma or biological fluid"}, "[10]": {"experiment": "Cytotoxicity (CC50) alongside HCV GT1b replicon assay", "conditions": "HCV GT1b (Con1) replicon cells"}, "human DNA polymerase β": {"target": "human DNA polymerase β (Homo sapiens, UniProt P06746)", "experiment": "Inhibition of human DNA polymerase β", "assay_type": "biochemical"}, "Dengue virus polymerase": {"target": "Dengue virus polymerase (Dengue virus type 2, UniProt P29990)", "sequence (P29990 2492-3391)": "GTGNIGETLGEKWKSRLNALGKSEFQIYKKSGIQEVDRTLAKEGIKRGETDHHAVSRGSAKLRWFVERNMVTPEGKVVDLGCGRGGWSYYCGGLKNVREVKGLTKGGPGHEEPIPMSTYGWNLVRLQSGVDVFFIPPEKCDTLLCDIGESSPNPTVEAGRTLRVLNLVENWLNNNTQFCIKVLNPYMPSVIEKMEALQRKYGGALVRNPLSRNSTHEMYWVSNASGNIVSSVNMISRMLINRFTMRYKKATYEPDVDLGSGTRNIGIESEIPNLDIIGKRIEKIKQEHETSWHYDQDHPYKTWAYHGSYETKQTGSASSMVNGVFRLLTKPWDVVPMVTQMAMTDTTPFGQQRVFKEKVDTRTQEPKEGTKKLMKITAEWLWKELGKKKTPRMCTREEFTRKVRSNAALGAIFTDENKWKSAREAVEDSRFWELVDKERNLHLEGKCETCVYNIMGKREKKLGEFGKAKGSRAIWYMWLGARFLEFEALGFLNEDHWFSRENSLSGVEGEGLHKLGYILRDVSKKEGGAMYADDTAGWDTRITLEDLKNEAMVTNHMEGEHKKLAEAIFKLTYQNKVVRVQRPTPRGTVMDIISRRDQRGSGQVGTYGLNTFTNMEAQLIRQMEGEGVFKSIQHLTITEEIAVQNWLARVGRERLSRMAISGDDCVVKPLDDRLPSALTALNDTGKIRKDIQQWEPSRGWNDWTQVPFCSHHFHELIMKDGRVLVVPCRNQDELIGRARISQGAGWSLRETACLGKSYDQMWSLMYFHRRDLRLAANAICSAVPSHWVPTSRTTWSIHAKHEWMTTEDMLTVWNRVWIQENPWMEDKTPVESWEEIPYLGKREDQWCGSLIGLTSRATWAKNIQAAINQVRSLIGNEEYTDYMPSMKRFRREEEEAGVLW", "experiment": "Inhibition of Dengue virus polymerase", "assay_type": "biochemical"}, "RSV polymerase": {"system": "RSV polymerase", "experiment": "Activity against RSV polymerase", "assay_type": "biochemical"}, "[11]": {"target": "T4, mitochondrial DNA polymerase pol γ (Homo sapiens, UniProt P54098)", "T4 sequence (P54098 1-1239)": "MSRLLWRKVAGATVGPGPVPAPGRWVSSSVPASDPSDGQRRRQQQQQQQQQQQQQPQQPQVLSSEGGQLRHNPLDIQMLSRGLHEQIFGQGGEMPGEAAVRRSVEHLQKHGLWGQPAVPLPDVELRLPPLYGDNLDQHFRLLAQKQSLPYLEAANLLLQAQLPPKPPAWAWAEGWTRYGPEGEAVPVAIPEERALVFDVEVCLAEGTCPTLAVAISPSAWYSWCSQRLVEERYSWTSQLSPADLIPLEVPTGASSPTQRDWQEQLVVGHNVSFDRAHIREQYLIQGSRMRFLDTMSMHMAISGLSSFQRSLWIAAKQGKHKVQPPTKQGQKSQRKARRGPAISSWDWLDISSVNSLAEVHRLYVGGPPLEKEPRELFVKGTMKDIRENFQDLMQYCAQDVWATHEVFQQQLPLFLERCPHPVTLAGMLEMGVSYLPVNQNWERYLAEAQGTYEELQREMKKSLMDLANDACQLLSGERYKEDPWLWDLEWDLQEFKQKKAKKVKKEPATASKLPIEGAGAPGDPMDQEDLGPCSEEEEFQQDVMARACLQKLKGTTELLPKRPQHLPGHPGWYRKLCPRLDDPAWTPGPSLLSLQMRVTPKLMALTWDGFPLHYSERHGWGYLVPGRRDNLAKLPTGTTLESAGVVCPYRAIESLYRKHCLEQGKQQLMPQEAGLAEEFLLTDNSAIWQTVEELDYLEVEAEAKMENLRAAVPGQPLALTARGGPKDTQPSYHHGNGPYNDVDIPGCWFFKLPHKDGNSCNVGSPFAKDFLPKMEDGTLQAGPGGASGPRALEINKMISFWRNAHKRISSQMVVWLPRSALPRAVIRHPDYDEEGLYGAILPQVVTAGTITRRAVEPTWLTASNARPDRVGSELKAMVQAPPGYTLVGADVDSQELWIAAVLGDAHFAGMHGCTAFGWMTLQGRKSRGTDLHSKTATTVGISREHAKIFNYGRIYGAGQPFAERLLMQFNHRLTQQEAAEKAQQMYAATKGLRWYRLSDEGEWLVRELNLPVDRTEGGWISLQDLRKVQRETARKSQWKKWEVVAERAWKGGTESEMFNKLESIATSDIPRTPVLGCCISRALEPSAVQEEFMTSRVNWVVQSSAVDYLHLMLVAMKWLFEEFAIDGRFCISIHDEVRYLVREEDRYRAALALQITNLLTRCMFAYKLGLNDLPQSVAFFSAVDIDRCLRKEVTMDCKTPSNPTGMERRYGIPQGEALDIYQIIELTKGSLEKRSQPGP", "experiment": "Inhibition of mitochondrial DNA polymerase pol γ", "assay_type": "biochemical", "conditions": "read-out: DNA pol γ IC50"}, "human RNA polymerase I [12]": {"target": "T1, human RNA polymerase I", "experiment": "Human RNA polymerase I activity in cell extracts", "assay_type": "biochemical"}, "HCV polymerase": {"target": "HCV polymerase (Hepatitis C virus genotype 1a, UniProt P27958)", "sequence (P27958 2421-3011)": "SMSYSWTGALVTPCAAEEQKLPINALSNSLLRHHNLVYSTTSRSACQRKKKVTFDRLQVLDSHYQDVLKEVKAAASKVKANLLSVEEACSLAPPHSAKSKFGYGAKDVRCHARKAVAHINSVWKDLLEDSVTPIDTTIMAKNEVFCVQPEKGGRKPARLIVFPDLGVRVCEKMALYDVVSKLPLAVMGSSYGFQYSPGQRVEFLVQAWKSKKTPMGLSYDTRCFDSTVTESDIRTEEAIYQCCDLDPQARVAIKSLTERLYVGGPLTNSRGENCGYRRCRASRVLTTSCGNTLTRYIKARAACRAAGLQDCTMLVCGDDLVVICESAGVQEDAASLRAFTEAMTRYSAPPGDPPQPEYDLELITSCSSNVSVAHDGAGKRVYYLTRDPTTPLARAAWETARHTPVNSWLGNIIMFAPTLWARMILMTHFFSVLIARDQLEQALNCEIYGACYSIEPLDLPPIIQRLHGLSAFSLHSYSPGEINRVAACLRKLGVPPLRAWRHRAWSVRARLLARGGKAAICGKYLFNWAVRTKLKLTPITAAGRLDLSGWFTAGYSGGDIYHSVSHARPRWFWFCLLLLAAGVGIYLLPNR", "experiment": "Inhibition of HCV polymerase", "assay_type": "biochemical"}, "influenza polymerase": {"target": "influenza polymerase (Influenza A virus, UniProt P03431)", "sequence (P03431 whole entry, looked up)": "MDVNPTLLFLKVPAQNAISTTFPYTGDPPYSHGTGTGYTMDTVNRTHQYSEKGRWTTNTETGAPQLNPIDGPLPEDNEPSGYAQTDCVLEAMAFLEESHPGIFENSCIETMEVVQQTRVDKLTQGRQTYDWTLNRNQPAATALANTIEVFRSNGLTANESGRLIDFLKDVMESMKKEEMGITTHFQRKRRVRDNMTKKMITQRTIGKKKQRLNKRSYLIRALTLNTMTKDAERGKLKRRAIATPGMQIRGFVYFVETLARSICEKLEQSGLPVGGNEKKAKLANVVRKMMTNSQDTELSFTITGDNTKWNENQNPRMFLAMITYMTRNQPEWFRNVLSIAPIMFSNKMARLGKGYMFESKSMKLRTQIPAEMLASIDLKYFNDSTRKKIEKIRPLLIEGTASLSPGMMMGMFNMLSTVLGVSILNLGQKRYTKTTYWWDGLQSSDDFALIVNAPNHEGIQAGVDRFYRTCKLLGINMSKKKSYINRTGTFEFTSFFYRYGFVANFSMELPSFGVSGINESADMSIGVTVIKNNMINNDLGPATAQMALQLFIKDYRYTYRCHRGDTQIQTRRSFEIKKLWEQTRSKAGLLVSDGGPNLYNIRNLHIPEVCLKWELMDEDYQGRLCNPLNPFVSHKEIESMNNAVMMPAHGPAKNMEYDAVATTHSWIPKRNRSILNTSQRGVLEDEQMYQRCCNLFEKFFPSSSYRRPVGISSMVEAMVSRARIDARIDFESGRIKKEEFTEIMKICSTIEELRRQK", "experiment": "Activity against influenza polymerase", "assay_type": "biochemical"}, "human RNA polymerase II [13]": {"target": "T2, human RNA polymerase II", "experiment": "Human RNA polymerase II activity in cell extracts", "assay_type": "biochemical"}, "human RNA polymerase III [14]": {"target": "T3, human RNA polymerase III", "experiment": "Human RNA polymerase III activity in cell extracts", "assay_type": "biochemical"}, "human DNA polymerase α": {"target": "T5, human DNA polymerase α (Homo sapiens, UniProt P09884)", "T5 sequence (P09884 1-1462)": "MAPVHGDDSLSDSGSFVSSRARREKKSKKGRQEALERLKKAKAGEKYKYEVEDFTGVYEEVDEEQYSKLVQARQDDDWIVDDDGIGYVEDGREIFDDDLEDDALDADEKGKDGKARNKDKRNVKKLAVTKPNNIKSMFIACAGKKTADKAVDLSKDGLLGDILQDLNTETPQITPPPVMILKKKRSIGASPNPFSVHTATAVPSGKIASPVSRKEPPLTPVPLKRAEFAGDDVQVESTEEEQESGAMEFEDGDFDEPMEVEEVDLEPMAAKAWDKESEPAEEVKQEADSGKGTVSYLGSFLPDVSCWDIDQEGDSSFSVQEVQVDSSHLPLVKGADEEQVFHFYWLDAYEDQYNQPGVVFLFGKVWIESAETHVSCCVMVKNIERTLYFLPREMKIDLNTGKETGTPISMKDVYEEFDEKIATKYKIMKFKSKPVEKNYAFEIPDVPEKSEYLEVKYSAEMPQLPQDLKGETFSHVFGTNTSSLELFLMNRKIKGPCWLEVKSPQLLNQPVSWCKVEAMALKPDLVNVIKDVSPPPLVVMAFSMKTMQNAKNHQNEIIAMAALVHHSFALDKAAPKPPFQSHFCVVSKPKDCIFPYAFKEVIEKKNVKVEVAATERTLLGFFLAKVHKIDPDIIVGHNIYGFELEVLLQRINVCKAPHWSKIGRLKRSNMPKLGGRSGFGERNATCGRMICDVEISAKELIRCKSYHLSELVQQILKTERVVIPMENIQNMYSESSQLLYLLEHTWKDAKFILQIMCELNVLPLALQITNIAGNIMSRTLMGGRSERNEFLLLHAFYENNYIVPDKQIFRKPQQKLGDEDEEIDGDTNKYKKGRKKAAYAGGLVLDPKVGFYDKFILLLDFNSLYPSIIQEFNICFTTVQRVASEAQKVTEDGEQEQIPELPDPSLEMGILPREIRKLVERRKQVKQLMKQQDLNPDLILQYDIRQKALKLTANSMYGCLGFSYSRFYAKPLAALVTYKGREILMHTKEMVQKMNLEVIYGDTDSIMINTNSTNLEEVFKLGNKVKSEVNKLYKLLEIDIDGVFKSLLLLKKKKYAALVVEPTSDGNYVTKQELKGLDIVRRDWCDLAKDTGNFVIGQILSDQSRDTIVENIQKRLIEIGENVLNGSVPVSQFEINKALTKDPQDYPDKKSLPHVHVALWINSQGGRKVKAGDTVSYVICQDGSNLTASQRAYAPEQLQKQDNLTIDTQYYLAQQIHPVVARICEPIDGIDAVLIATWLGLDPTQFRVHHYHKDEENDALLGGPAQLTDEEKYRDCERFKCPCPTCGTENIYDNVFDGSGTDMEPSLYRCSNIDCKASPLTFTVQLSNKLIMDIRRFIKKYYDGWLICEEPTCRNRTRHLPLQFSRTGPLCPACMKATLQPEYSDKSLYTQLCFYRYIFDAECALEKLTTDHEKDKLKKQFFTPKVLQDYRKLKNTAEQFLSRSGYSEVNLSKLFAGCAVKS", "experiment": "Inhibition of human DNA polymerase α", "assay_type": "biochemical"}}, "note": "pEC50, pIC50: −log10 of the molar value. Where two headings read alike, the source gives them in different places.", "data": [{"smiles": "C[C@H](NP(=O)(OC[C@@]1(N=[N+]=[N-])O[C@@H](n2ccc(=O)[nH]c2=O)[C@H](O)[C@@H]1O)Oc1cccc2ccccc12)C(=O)OCc1ccccc1", "note": "(stereo partly drawn) [Compound I-1, benzyl ((((2R,3S,4R,5R)-2-azido-5-(2,4-dioxo-3,4-dihydropyrimidin-1(2H)-yl)-3,4-dihydroxytetrahydrofuran-2-yl)methoxy)(naphthalen-1-yloxy)phosphoryl)-L-alaninate]", "values": [{"measurement": "CC50", "setting": "[1]", "value": "> 10", "unit": "µM"}, {"measurement": "pEC50", "setting": "[2]", "value": 6.38}, {"measurement": "inhibition of human RNA polymerase I activity (reporter gene)", "setting": "human RNA polymerase I [3]", "value": "did not inhibit"}, {"measurement": "inhibition of human RNA polymerase II activity (reporter gene)", "setting": "human RNA polymerase II [4]", "value": "did not inhibit"}, {"measurement": "pEC50", "setting": "[5]", "value": 6.48}, {"measurement": "CC50 at 3 day", "setting": "[6]; cytotoxicity column of the ZIKV assay, read-out: ZIKV CC50", "value": "> 10", "unit": "µM"}, {"measurement": "CC50 at 3 day", "setting": "[6]; summary statement, cytotoxicity in cell culture, read-out: Huh-7 cell CC50", "value": "> 100", "unit": "µM"}, {"measurement": "inhibition of human RNA polymerase III activity (reporter gene)", "setting": "human RNA polymerase III [7]", "value": "did not inhibit"}, {"measurement": "pEC50", "setting": "[8]; Zika virus, ZIKV strain MR766, human Huh-7 or mouse MEF cells", "value": 6.13}, {"measurement": "antiviral inhibition potency (EC50), in words", "setting": "[8]; summary statement", "value": "submicromolar"}, {"measurement": "solubility", "setting": "[9]", "value": "≤ 10", "unit": "µM"}, {"measurement": "CC50", "setting": "[10]", "value": "> 10", "unit": "µM"}]}, {"smiles": "[N-]=[N+]=N[C@]1(COP(=O)(O)OP(=O)(O)OP(=O)(O)O)O[C@@H](n2ccc(=O)[nH]c2=O)[C@H](O)[C@@H]1O", "note": "[Compound 4AUTP, 4′-azido-uridine triphosphate]", "values": [{"measurement": "pIC50", "setting": "human DNA polymerase β", "value": "< 3.00"}, {"measurement": "inhibition of Dengue virus polymerase", "setting": "Dengue virus polymerase", "value": "inhibition"}, {"measurement": "activity against RSV polymerase", "setting": "RSV polymerase", "value": "not active"}, {"measurement": "pIC50", "setting": "[11]", "value": "< 3.00"}, {"measurement": "pIC50", "setting": "human RNA polymerase I [12]", "value": "< 3.00"}, {"measurement": "inhibition of HCV polymerase", "setting": "HCV polymerase", "value": "inhibition"}, {"measurement": "activity against influenza polymerase", "setting": "influenza polymerase", "value": "not active"}, {"measurement": "pIC50", "setting": "human RNA polymerase II [13]", "value": "< 3.00"}, {"measurement": "pIC50", "setting": "human RNA polymerase III [14]", "value": "< 3.00"}, {"measurement": "pIC50", "setting": "human DNA polymerase α", "value": "< 3.00"}]}]}
